Results: paper PMC5218480 (PLoS ONE, 2017)

Tested on: MV-4-11 cells
Test: Gene expression microarray analysis (Affymetrix PrimeView) and GSEA
Format: cell-based, human
Parameters: RFU PODN (11730768_x_at) / Fold change /veh PODN (11730768_x_at) / RFU LINC00158 (11744669_a_at) / Fold change /veh LINC00158 (11744669_a_at) / RFU DUSP10 (11751237_a_at) / Fold change /veh DUSP10 (11751237_a_at) / RFU ID3 (11757404_x_at) / Fold change /veh ID3 (11757404_x_at) / RFU PLEKHG5 (11737974_s_at) / Fold change /veh PLEKHG5 (11737974_s_at) / RFU LRRC4B (11730491_at) / Fold change /veh LRRC4B (11730491_at) / RFU GIMAP4 (11747438_a_at) / Fold change /veh GIMAP4 (11747438_a_at) / RFU KRT8 (11758183_x_at) / Fold change /veh KRT8 (11758183_x_at) / RFU CNN1 (11734310_a_at) / Fold change /veh CNN1 (11734310_a_at) / RFU VPS37D (11726825_at) / Fold change /veh VPS37D (11726825_at) / RFU C10orf10 (11716522_x_at) / Fold change /veh C10orf10 (11716522_x_at) / RFU KIR2DL2 /// KIR2DL4 /// KIR2DL5A /// KIR2DL5B /// KIR2DS1 /// KIR2DS2 /// KIR2DS3 /// KIR2DS4 /// KIR3DL3 /// KIR3DL3 /// KIR3DS1 (11738374_at) / Fold change /veh KIR2DL2 /// KIR2DL4 /// KIR2DL5A /// KIR2DL5B /// KIR2DS1 /// KIR2DS2 /// KIR2DS3 /// KIR2DS4 /// KIR3DL3 /// KIR3DL3 /// KIR3DS1 (11738374_at) / RFU C1QL1 (11718748_at) / Fold change /veh C1QL1 (11718748_at) / RFU TMPRSS4 (11747572_a_at) / Fold change /veh TMPRSS4 (11747572_a_at) / RFU HAMP (11756126_x_at) / Fold change /veh HAMP (11756126_x_at) / RFU RNFT2 (11725882_a_at) / Fold change /veh RNFT2 (11725882_a_at) / RFU NR4A2 (11747474_a_at) / Fold change /veh NR4A2 (11747474_a_at) / RFU ABCC12 (11746883_a_at) / Fold change /veh ABCC12 (11746883_a_at) / RFU TMEM136 (11760407_x_at) / Fold change /veh TMEM136 (11760407_x_at) / RFU CLDN22 /// WWC2 (11732394_at) / Fold change /veh CLDN22 /// WWC2 (11732394_at) / RFU HLA-DPB1 (11760878_x_at) / Fold change /veh HLA-DPB1 (11760878_x_at) / RFU SPINT1 (11716480_a_at) / Fold change /veh SPINT1 (11716480_a_at) / RFU GAP43 (11754022_s_at) / Fold change /veh GAP43 (11754022_s_at) / RFU A4GNT (11735810_at) / Fold change /veh A4GNT (11735810_at) / RFU PRB3 (11715151_x_at) / Fold change /veh PRB3 (11715151_x_at) / RFU TUBB4B (11761932_at) / Fold change /veh TUBB4B (11761932_at) / RFU CAPN14 (11732068_a_at) / Fold change /veh CAPN14 (11732068_a_at) / RFU TMCC2 (11721928_a_at) / Fold change /veh TMCC2 (11721928_a_at) / RFU IRGQ (11745062_a_at) / Fold change /veh IRGQ (11745062_a_at) / RFU FAM174B (11720279_a_at) / Fold change /veh FAM174B (11720279_a_at) / RFU TMPRSS4 (11748680_a_at) / Fold change /veh TMPRSS4 (11748680_a_at) / RFU FAM212B (11763350_a_at) / Fold change /veh FAM212B (11763350_a_at) / RFU PLEKHG5 (11743358_a_at) / Fold change /veh PLEKHG5 (11743358_a_at) / RFU ZSCAN30 (11745921_a_at) / Fold change /veh ZSCAN30 (11745921_a_at) / RFU CMKLR1 (11741424_a_at) / Fold change /veh CMKLR1 (11741424_a_at) / RFU LOC101060620 /// MAPK8IP1 (11723275_at) / Fold change /veh LOC101060620 /// MAPK8IP1 (11723275_at) / RFU SPTSSB (11747773_x_at) / Fold change /veh SPTSSB (11747773_x_at) / RFU PRSS12 (11739890_at) / Fold change /veh PRSS12 (11739890_at) / RFU BIN1 (11741810_x_at) / Fold change /veh BIN1 (11741810_x_at) / RFU WNT11 (11732464_a_at) / Fold change /veh WNT11 (11732464_a_at) / RFU C10orf10 (11716521_a_at) / Fold change /veh C10orf10 (11716521_a_at) / RFU C5orf56 (11738089_at) / Fold change /veh C5orf56 (11738089_at) / RFU CYB561 (11721691_x_at) / Fold change /veh CYB561 (11721691_x_at) / RFU ANKRD19P (11752326_a_at) / Fold change /veh ANKRD19P (11752326_a_at) / RFU OR2T12 /// OR2T33 /// OR2T8 (11738714_s_at) / Fold change /veh OR2T12 /// OR2T33 /// OR2T8 (11738714_s_at) / RFU VCAN (11748164_a_at) / Fold change /veh VCAN (11748164_a_at) / RFU JSRP1 (11732532_at) / Fold change /veh JSRP1 (11732532_at) / RFU KRTAP10-11 (11738290_x_at) / Fold change /veh KRTAP10-11 (11738290_x_at) / RFU MYO3A (11730013_a_at) / Fold change /veh MYO3A (11730013_a_at) / RFU EBF3 (11725865_a_at) / Fold change /veh EBF3 (11725865_a_at) / RFU CAMK2N1 (11719241_x_at) / Fold change /veh CAMK2N1 (11719241_x_at) / RFU C5orf56 (11738088_a_at) / Fold change /veh C5orf56 (11738088_a_at) / RFU OLFML3 (11715873_a_at) / Fold change /veh OLFML3 (11715873_a_at) / RFU LOC100653217 /// NTM (11731650_a_at) / Fold change /veh LOC100653217 /// NTM (11731650_a_at) / RFU MAPK11 (11762145_a_at) / Fold change /veh MAPK11 (11762145_a_at) / RFU FIZ1 (11724087_x_at) / Fold change /veh FIZ1 (11724087_x_at) / RFU OASL (11726364_x_at) / Fold change /veh OASL (11726364_x_at) / RFU SOX15 (11748057_x_at) / Fold change /veh SOX15 (11748057_x_at) / RFU CD79A (11719716_a_at) / Fold change /veh CD79A (11719716_a_at) / RFU HIST1H1D (11736915_at) / Fold change /veh HIST1H1D (11736915_at) / RFU CASKIN2 (11723855_a_at) / Fold change /veh CASKIN2 (11723855_a_at) / RFU LOC730098 (11760151_x_at) / Fold change /veh LOC730098 (11760151_x_at) / RFU OR4N2 (11742367_at) / Fold change /veh OR4N2 (11742367_at) / RFU PRRT2 (11749266_a_at) / Fold change /veh PRRT2 (11749266_a_at) / RFU SNX32 (11753110_a_at) / Fold change /veh SNX32 (11753110_a_at) / RFU CDHR5 (11726645_a_at) / Fold change /veh CDHR5 (11726645_a_at) / RFU RCAN1 (11760418_a_at) / Fold change /veh RCAN1 (11760418_a_at) / RFU FAM167A (11723789_a_at) / Fold change /veh FAM167A (11723789_a_at) / RFU FAM26E (11764081_at) / Fold change /veh FAM26E (11764081_at) / RFU ISYNA1 (11749810_s_at) / Fold change /veh ISYNA1 (11749810_s_at) / RFU ACY1 (11761880_at) / Fold change /veh ACY1 (11761880_at) / RFU 11764098_at / Fold change /veh 11764098_at / RFU SAMD14 (11745864_x_at) / Fold change /veh SAMD14 (11745864_x_at) / RFU NPB (11741838_a_at) / Fold change /veh NPB (11741838_a_at) / RFU TMPRSS6 (11731388_a_at) / Fold change /veh TMPRSS6 (11731388_a_at) / RFU KRTAP10-2 (11738614_at) / Fold change /veh KRTAP10-2 (11738614_at) / RFU ARHGAP8 /// PRR5-ARHGAP8 (11727945_x_at) / Fold change /veh ARHGAP8 /// PRR5-ARHGAP8 (11727945_x_at) / RFU KRTAP5-7 /// NADSYN1 (11734609_at) / Fold change /veh KRTAP5-7 /// NADSYN1 (11734609_at) / RFU RASL12 (11751679_a_at) / Fold change /veh RASL12 (11751679_a_at) / RFU CDKN2B (11736163_a_at) / Fold change /veh CDKN2B (11736163_a_at) / RFU PRF1 (11729649_at) / Fold change /veh PRF1 (11729649_at) / RFU, ZNF638 /// ZNF638-IT1 / Fold change vs veh, ZNF638 /// ZNF638-IT1 / RFU, PANK3 / Fold change vs veh, PANK3 / RFU, SH3YL1 / Fold change vs veh, SH3YL1 / RFU, ZEB2 / Fold change vs veh, ZEB2 / RFU, NRIP1 / Fold change vs veh, NRIP1 / RFU, PTTG1IP / Fold change vs veh, PTTG1IP / RFU, CAPN2 / Fold change vs veh, CAPN2 / RFU, MED14 / Fold change vs veh, MED14 / RFU, SNORA58 / Fold change vs veh, SNORA58 / RFU, C1orf63 / Fold change vs veh, C1orf63 / RFU, LRRFIP1 / Fold change vs veh, LRRFIP1 / RFU, NDUFAF7 / Fold change vs veh, NDUFAF7 / RFU, SLC12A2 / Fold change vs veh, SLC12A2 / RFU, IBTK / Fold change vs veh, IBTK / RFU, ESF1 / Fold change vs veh, ESF1 / Fold change vs veh, TMEM50B / RFU, TAOK1 / Fold change vs veh, TAOK1 / RFU, ACBD3 / Fold change vs veh, ACBD3 / RFU, TMA16 / Fold change vs veh, TMA16 / RFU, RWDD3 / Fold change vs veh, RWDD3 / RFU, BCAT1 / Fold change vs veh, BCAT1 / RFU, EDEM3 / Fold change vs veh, EDEM3 / RFU, TMEM33 / Fold change vs veh, TMEM33 / RFU, WDR75 / Fold change vs veh, WDR75 / RFU, AHCTF1 / Fold change vs veh, AHCTF1 / RFU, TFRC / Fold change vs veh, TFRC / RFU, ZDHHC17 / Fold change vs veh, ZDHHC17 / RFU, NOM1 / Fold change vs veh, NOM1 / RFU, ARL8B / Fold change vs veh, ARL8B / RFU, ZBTB11 / Fold change vs veh, ZBTB11 / RFU, TAMM41 / Fold change vs veh, TAMM41 / RFU, KIAA1704 /// LOC100996395 / Fold change vs veh, KIAA1704 /// LOC100996395 / RFU, ING1 / Fold change vs veh, ING1 / RFU, TRMT61B / Fold change vs veh, TRMT61B / RFU, FUBP3 / Fold change vs veh, FUBP3 / RFU, TP53 / Fold change vs veh, TP53 / RFU, TNKS2 / Fold change vs veh, TNKS2 / RFU, ZFP14 / Fold change vs veh, ZFP14 / RFU, ACTR2 / Fold change vs veh, ACTR2 / RFU, PPP3R1 / Fold change vs veh, PPP3R1 / RFU, PIK3R1 / Fold change vs veh, PIK3R1 / RFU, HNRNPA1 / Fold change vs veh, HNRNPA1 / RFU, RNF170 / Fold change vs veh, RNF170 / RFU, ZNF28 / Fold change vs veh, ZNF28 / RFU, RNGTT / Fold change vs veh, RNGTT / RFU, OGT / Fold change vs veh, OGT / RFU, BRD1 / Fold change vs veh, BRD1 / RFU, MARS / Fold change vs veh, MARS / RFU, ZNF655 / Fold change vs veh, ZNF655 / RFU, FAHD1 / Fold change vs veh, FAHD1 / RFU, BDP1 / Fold change vs veh, BDP1 / RFU, LRRCC1 / Fold change vs veh, LRRCC1 / RFU, ARID1A / Fold change vs veh, ARID1A / RFU, ZNF146 / Fold change vs veh, ZNF146 / RFU, ZNF330 / Fold change vs veh, ZNF330 / RFU, GPN3 / Fold change vs veh, GPN3 / RFU, C9orf123 / Fold change vs veh, C9orf123 / RFU, N4BP2L2 / Fold change vs veh, N4BP2L2 / RFU, ARFIP1 / Fold change vs veh, ARFIP1 / RFU, FAM179B / Fold change vs veh, FAM179B / RFU, BCL10 / Fold change vs veh, BCL10 / RFU, UHRF1BP1L / Fold change vs veh, UHRF1BP1L / RFU, BET1 / Fold change vs veh, BET1 / RFU, CNOT2 / Fold change vs veh, CNOT2 / RFU, ZNF268 / Fold change vs veh, ZNF268 / Fold change vs veh, ZNF507 / RFU, DGCR2 / Fold change vs veh, DGCR2 / RFU, WDSUB1 / Fold change vs veh, WDSUB1 / Fold change vs veh, HSP90B1 /// MIR3652 / RFU, ADSS / Fold change vs veh, ADSS / RFU, GK / Fold change vs veh, GK / RFU, ZNF148 / Fold change vs veh, ZNF148 / RFU, TAF9 / Fold change vs veh, TAF9 / RFU, SLC1A5 / Fold change vs veh, SLC1A5 / RFU, SLMO2 / Fold change vs veh, SLMO2 / RFU, ABCC4 / Fold change vs veh, ABCC4 / RFU, LOC101060439 /// RAP1B / Fold change vs veh, LOC101060439 /// RAP1B / RFU, RFX7 / Fold change vs veh, RFX7 / RFU, GTPBP10 / Fold change vs veh, GTPBP10 / RFU, CNEP1R1 / Fold change vs veh, CNEP1R1 / RFU, BIVM-ERCC5 /// ERCC5 / Fold change vs veh, BIVM-ERCC5 /// ERCC5 / RFU, ILF3 / Fold change vs veh, ILF3 / RFU 11762660_at / Fold change /veh 11762660_at / RFU VCAN (11757783_s_at) / Fold change /veh VCAN (11757783_s_at) / RFU DDX43 (11728927_at) / Fold change /veh DDX43 (11728927_at) / RFU KRT8 (11758188_x_at) / Fold change /veh KRT8 (11758188_x_at) / RFU NKD1 (11759106_at) / Fold change /veh NKD1 (11759106_at) / RFU SRD5A1 (11742802_a_at) / Fold change /veh SRD5A1 (11742802_a_at) / RFU TPSAB1 /// TPSB2 (11721975_s_at) / Fold change /veh TPSAB1 /// TPSB2 (11721975_s_at) / RFU GSTM3 (11746129_a_at) / Fold change /veh GSTM3 (11746129_a_at) / RFU IL23R (11737362_x_at) / Fold change /veh IL23R (11737362_x_at) / RFU TMEM51 (11727254_a_at) / Fold change /veh TMEM51 (11727254_a_at) / RFU PIWIL2 (11732686_x_at) / Fold change /veh PIWIL2 (11732686_x_at) / RFU ORM1 (11744905_x_at) / Fold change /veh ORM1 (11744905_x_at) / RFU CCDC152 (11743942_at) / Fold change /veh CCDC152 (11743942_at) / RFU ECM1 (11717891_a_at) / Fold change /veh ECM1 (11717891_a_at) / RFU IL23R (11748794_a_at) / Fold change /veh IL23R (11748794_a_at) / RFU TNFAIP8L3 (11732012_x_at) / Fold change /veh TNFAIP8L3 (11732012_x_at) / RFU MBOAT4 (11741988_at) / Fold change /veh MBOAT4 (11741988_at) / RFU 11764193_at / Fold change /veh 11764193_at / RFU TMEM53 (11763286_at) / Fold change /veh TMEM53 (11763286_at) / RFU MAGEB2 (11727129_at) / Fold change /veh MAGEB2 (11727129_at) / RFU TMEM200A (11744735_a_at) / Fold change /veh TMEM200A (11744735_a_at) / RFU CCDC152 (11751479_a_at) / Fold change /veh CCDC152 (11751479_a_at) / RFU FAM211A (11726209_a_at) / Fold change /veh FAM211A (11726209_a_at) / RFU RGS16 (11746705_a_at) / Fold change /veh RGS16 (11746705_a_at) / RFU VCAN (11755009_s_at) / Fold change /veh VCAN (11755009_s_at) / RFU RHOB (11743442_s_at) / Fold change /veh RHOB (11743442_s_at) / RFU RGS16 (11720943_a_at) / Fold change /veh RGS16 (11720943_a_at) / RFU RGS16 (11720944_at) / Fold change /veh RGS16 (11720944_at) / RFU, VPS4B / Fold change vs veh, VPS4B / RFU, CREB1 / Fold change vs veh, CREB1 / RFU, DNAJC13 / Fold change vs veh, DNAJC13 / RFU, GNAQ / Fold change vs veh, GNAQ / RFU, CDK5R1 / Fold change vs veh, CDK5R1 / RFU, ZRANB3 / Fold change vs veh, ZRANB3 / RFU, CUL4A / Fold change vs veh, CUL4A / RFU, CCNY / Fold change vs veh, CCNY / RFU, UFL1 / Fold change vs veh, UFL1 / RFU, COG3 / Fold change vs veh, COG3 / RFU, DIAPH2 / Fold change vs veh, DIAPH2 / RFU, SKA2 / Fold change vs veh, SKA2 / RFU, AFF3 / Fold change vs veh, AFF3 / RFU, LMF1 / Fold change vs veh, LMF1 / RFU, IPO11 / Fold change vs veh, IPO11 / RFU, DFFB / Fold change vs veh, DFFB / RFU, FOXP1 / Fold change vs veh, FOXP1 / RFU, CARD8 / Fold change vs veh, CARD8 / RFU, STRN3 / Fold change vs veh, STRN3 / RFU, ADK / Fold change vs veh, ADK / RFU, RASSF2 / Fold change vs veh, RASSF2 / RFU, WIPF1 / Fold change vs veh, WIPF1 / RFU, LARP1B / Fold change vs veh, LARP1B / RFU, RASA1 / Fold change vs veh, RASA1 / RFU, RB1 / Fold change vs veh, RB1 / RFU, PPFIA1 / Fold change vs veh, PPFIA1 / RFU, MAT2A / Fold change vs veh, MAT2A / RFU, CCT5 / Fold change vs veh, CCT5 / RFU, WDR92 / Fold change vs veh, WDR92 / RFU, CUX1 / Fold change vs veh, CUX1 / RFU, TTC7A / Fold change vs veh, TTC7A / RFU, TMEM135 / Fold change vs veh, TMEM135 / RFU, DEPTOR / Fold change vs veh, DEPTOR / RFU, CPM / Fold change vs veh, CPM / RFU, DNAJB6 / Fold change vs veh, DNAJB6 / RFU, CACNA2D3 / Fold change vs veh, CACNA2D3 / RFU, DTX4 / Fold change vs veh, DTX4 / RFU, TFCP2 / Fold change vs veh, TFCP2 / RFU, GMCL1 /// GMCL1P1 / Fold change vs veh, GMCL1 /// GMCL1P1 / RFU, AEBP2 / Fold change vs veh, AEBP2 / RFU, SNHG1 /// SNORD22 /// SNORD25 /// SNORD26 /// SNORD27 /// SNORD28 /// SNORD29 /// SNORD31 / Fold change vs veh, SNHG1 /// SNORD22 /// SNORD25 /// SNORD26 /// SNORD27 /// SNORD28 /// SNORD29 /// SNORD31 / Fold change (Aza/veh), C12orf56 (ProbeSet 11735607_a_at) / Fold change (ACY-1035/veh), C12orf56 (ProbeSet 11735607_a_at) / Fold change (Aza/veh), FGFR1OP (ProbeSet 11751329_s_at) / Fold change (ACY-1035/veh), FGFR1OP (ProbeSet 11751329_s_at) / Fold change (Aza/veh), VPS36 (ProbeSet 11739960_a_at) / Fold change (ACY-1035/veh), VPS36 (ProbeSet 11739960_a_at) / RFU SYPL1 (11715823_x_at) / Fold change /veh SYPL1 (11715823_x_at) / RFU IGFBP7 (11715501_s_at) / Fold change /veh IGFBP7 (11715501_s_at) / RFU REEP3 (11722064_at) / Fold change /veh REEP3 (11722064_at) / RFU IGLL1 (11728026_x_at) / Fold change /veh IGLL1 (11728026_x_at): dose or concentration left out as unconfirmed
Details: ProbeSet 11740011_at; LIST B

## Nc1ccc(-c2cccs2)cc1NC(=O)c1ccc2c(c1)cc(C1CC1)n2CCN1CCOCC1 [ACY-1035]
  Fold change vs veh, ZFP14: 1.03
